From patent US20250270199A1, “THIAZOLE DERIVATIVES AND METHODS OF USING THE SAME” (Arkansas State University - Jonesboro, priority 2022, published 2025)
Converted amounts (≈) assume the structure as drawn. Where two headings read alike, the source gives them in different places.

How the values were obtained:
[1] = test system: S. aureus ATCC 33592 (Sa 92); assay: MIC, broth microdilution, Sa 92; format: cell-based; settings: Staphylococcus aureus, ATCC33592; Table 2, HTM series; read-out: Minimum inhibitory concentration (MIC) Sa 92
Experimental: (§1) The broth microdilution method was utilized to determine MIC values of novel thiazole derivatives against different clinically important Gram-positive bacteria according to the guidelines outlined by the Clinical and Laboratory Standards Institute (CLSI) as reported in our recent papers.^1-5 The starting concentration of compounds for MIC determination was 64 μg/mL serially diluted down the wells and the MIC values were recorded in duplicates in three independent experiments on different days.

[2] = test system: S. aureus ATCC 33591 (Sa 91); assay: MIC, broth microdilution, Sa 91; format: cell-based; settings: Staphylococcus aureus, ATCC33591; Table 2, HTM series; read-out: Minimum inhibitory concentration (MIC) Sa 91
Experimental: as §1

[3] = test system: S. aureus subsp. aureus Rosenbach ATCC 25904 (SA Newman); assay: MIC, broth microdilution, SA Newman; format: cell-based; settings: Staphylococcus aureus; Table 2, HTM series; read-out: Minimum inhibitory concentration (MIC) Sa Newman
Experimental: as §1

[4] = test system: Sa UAMS-1 MRSA ATCC 49230 (Sa UAMS); assay: MIC, broth microdilution, Sa UAMS; format: cell-based, S. aureus; settings: Staphylococcus aureus; Table 2, HTM series; read-out: Minimum inhibitory concentration (MIC) Sa UAMS-1
Experimental: as §1

[5] = test system: S. aureus ATCC 700699 (Sa 99); assay: MIC, broth microdilution, Sa 99; format: cell-based; settings: for MIC: Staphylococcus aureus, read-out: Minimum inhibitory concentration (MIC) Sa 99; for Minimum inhibitory concentration (MIC) Sa 99: Table 1, HT series
Experimental: as §1

[6] = test system: E. faecalis ATCC 29212 (Efs 12); assay: MIC, broth microdilution, Efs 12; format: cell-based; settings: for MIC: Enterococcus faecalis, read-out: Minimum inhibitory concentration (MIC) Efs 12; for Minimum inhibitory concentration (MIC) Efs 12: Table 1, HT series
Experimental: as §1

[7] = test system: S. aureus subsp. aureus Rosenbach BAA-1717 (Sa USA 300); assay: MIC, broth microdilution, Sa USA 300; format: cell-based; settings: Staphylococcus aureus; Table 2, HTM series; read-out: Minimum inhibitory concentration (MIC) Sa USA 300
Experimental: as §1

[8] = test system: E. faecium ATCC 700221 (Efm 21); assay: MIC, broth microdilution, Efm 21; format: cell-based; settings: Enterococcus faecium, read-out: Minimum inhibitory concentration (MIC) Efm 21
Experimental: as §1

[9] = test system: S. aureus ATCC BAA-2312 (Sa 12); assay: MIC, broth microdilution, Sa 12; format: cell-based; settings: Staphylococcus aureus, ATCCBAA2312; Table 2, HTM series; read-out: Minimum inhibitory concentration (MIC) Sa 12
Experimental: as §1

[10] = test system: S. epidermidis ATCC 700296 (Se); assay: MIC, broth microdilution, Se; format: cell-based; settings: Staphylococcus epidermidis, ATCC700296; Table 2, HTM series; read-out: Minimum inhibitory concentration (MIC) Se
Experimental: as §1

[11] = test system: E. faecalis ATCC 51299 (Efs 99); assay: MIC, broth microdilution, Efs 99; format: cell-based; settings: for MIC: Enterococcus faecalis, ATCC51299, read-out: Minimum inhibitory concentration (MIC) Efs 99
Experimental: as §1

[12] = test system: S. aureus ATCC 25923 (Sa 23); assay: MIC, broth microdilution, Sa 23; format: cell-based; settings: for MIC: Staphylococcus aureus, read-out: Minimum inhibitory concentration (MIC) Sa 23; for Minimum inhibitory concentration (MIC) Sa 23: Table 1, HT series
Experimental: as §1

[13] = ATCC700699, Table 2, HTM series
[14] = ATCC700221, Table 2, HTM series
[15] = ATCC700699, Table 1, HT series, replicates from different days separated by comma
[16] = replicates from different days separated by comma
[17] = ATCC29212, Table 1, HT series, replicates from different days separated by comma
[18] = ATCC25923, Table 1, HT series, replicates from different days separated by comma

Row | SMILES | MIC [1] | MIC [2] | MIC [3] | MIC [4] | MIC [5, 13] | MIC ([6]; ATCC29212, Table 2, HTM series) | MIC [7] | MIC [8, 14] | MIC [9] | MIC [10] | MIC ([11]; Table 2, HTM series) | MIC ([12]; ATCC25923, Table 2, HTM series) | MIC [5, 15] | Minimum inhibitory concentration (MIC) Sa 99 [5, 16] | MIC [6, 17] | Minimum inhibitory concentration (MIC) Efs 12 [6, 16] | MIC [12, 18] | Minimum inhibitory concentration (MIC) Sa 23 [12, 16] | also measured
1 | Oc1ccc(-c2csc(Nc3cc(C(F)(F)F)cc(C(F)(F)F)c3)n2)cc1O [Compound 58, 4-(2-((3,5-bis(trifluoromethyl)phenyl)amino)thiazol-4-yl)benzene-1,2-diol] | 4 µg/mL (≈ 9.52 µM) | 4 µg/mL (≈ 9.52 µM) | 4 µg/mL (≈ 9.52 µM) | 4 µg/mL (≈ 9.52 µM) | 4 µg/mL (≈ 9.52 µM) | 4 µg/mL (≈ 9.52 µM) | 4 µg/mL (≈ 9.52 µM) | 4 µg/mL (≈ 9.52 µM) | 4 µg/mL (≈ 9.52 µM) | 4 µg/mL (≈ 9.52 µM) | 4 µg/mL (≈ 9.52 µM) | 4 µg/mL (≈ 9.52 µM) |  |  |  |  |  |  | 
2 | Oc1ccc(-c2csc(Nc3ccc(Cl)c(Cl)c3)n2)cc1 [Compound 75, 4-(2-((3,4-dichlorophenyl)amino)thiazol-4-yl)phenol] | 2 µg/mL (≈ 5.93 µM) | 2 µg/mL (≈ 5.93 µM) | 4 µg/mL (≈ 11.9 µM) | 2 µg/mL (≈ 5.93 µM) | 2 µg/mL (≈ 5.93 µM) | 4 µg/mL (≈ 11.9 µM) | 2 µg/mL (≈ 5.93 µM) | 4 µg/mL (≈ 11.9 µM) | 2 µg/mL (≈ 5.93 µM) | 2 µg/mL (≈ 5.93 µM) | 4 µg/mL (≈ 11.9 µM) | 2 µg/mL (≈ 5.93 µM) |  |  |  |  |  |  | 
3 | Oc1ccc(-c2csc(Nc3ccc(Cl)c(Cl)c3)n2)cc1O [Compound 74, 4-(2-((3,4-dichlorophenyl)amino)thiazol-4-yl)benzene-1,2-diol] | 4 µg/mL (≈ 11.3 µM) | 8 µg/mL (≈ 22.6 µM) | 8 µg/mL (≈ 22.6 µM) | 8 µg/mL (≈ 22.6 µM) | 4 µg/mL (≈ 11.3 µM) | 8 µg/mL (≈ 22.6 µM) | 8 µg/mL (≈ 22.6 µM) | 4 µg/mL (≈ 11.3 µM) | 4 µg/mL (≈ 11.3 µM) | 4 µg/mL (≈ 11.3 µM) | 8 µg/mL (≈ 22.6 µM) | 4 µg/mL (≈ 11.3 µM) |  |  |  |  |  |  | 
4 | Oc1ccc(-c2nc(C(F)(F)F)cs2)cc1O [Compound 1, 4-(4-(trifluoromethyl)thiazol-2-yl)benzene-1,2-diol] |  |  |  |  |  |  |  |  |  |  |  |  | > 32 µg/mL | >32, >32 μg/mL | > 32 µg/mL | >32, >32 μg/mL | > 32 µg/mL | >32, >32 μg/mL | 

The next lines start with results.

Row | MIC [1] | MIC [2] | MIC [3] | MIC [4] | MIC [5, 13] | MIC ([6]; ATCC29212, Table 2, HTM series) | MIC [7] | MIC [8, 14] | MIC [9] | MIC [10] | MIC ([11]; Table 2, HTM series) | MIC ([12]; ATCC25923, Table 2, HTM series) | MIC [5, 15] | Minimum inhibitory concentration (MIC) Sa 99 [5, 16] | MIC [6, 17] | Minimum inhibitory concentration (MIC) Efs 12 [6, 16] | MIC [12, 18] | Minimum inhibitory concentration (MIC) Sa 23 [12, 16] | SMILES | also measured
5 | 4 µg/mL (≈ 11.9 µM) | 4 µg/mL (≈ 11.9 µM) | 4 µg/mL (≈ 11.9 µM) | 4 µg/mL (≈ 11.9 µM) | 4 µg/mL (≈ 11.9 µM) | 4 µg/mL (≈ 11.9 µM) | 4 µg/mL (≈ 11.9 µM) | 8 µg/mL (≈ 23.7 µM) | 4 µg/mL (≈ 11.9 µM) | 4 µg/mL (≈ 11.9 µM) | 8 µg/mL (≈ 23.7 µM) | 4 µg/mL (≈ 11.9 µM) |  |  |  |  |  |  | Oc1ccc(-c2csc(Nc3cc(Cl)ccc3Cl)n2)cc1 [Compound 73, 4-(2-((2,5-dichlorophenyl)amino)thiazol-4-yl)phenol] | 
6 | 1 µg/mL (≈ 2.69 µM) | 1 µg/mL (≈ 2.69 µM) | 4 µg/mL (≈ 10.8 µM) | 4 µg/mL (≈ 10.8 µM) | 1 µg/mL (≈ 2.69 µM) | 4 µg/mL (≈ 10.8 µM) | 4 µg/mL (≈ 10.8 µM) | 4 µg/mL (≈ 10.8 µM) | 1 µg/mL (≈ 2.69 µM) | 8 µg/mL (≈ 21.5 µM) | 4 µg/mL (≈ 10.8 µM) | 1 µg/mL (≈ 2.69 µM) |  |  |  |  |  |  | Oc1ccc(-c2csc(Nc3cc(Cl)c(Cl)cc3Cl)n2)cc1 [Compound 69, 4-(2-((2,4,5-trichlorophenyl)amino)thiazol-4-yl)phenol] | 
7 |  |  |  |  |  |  |  |  |  |  |  |  | 16 µg/mL (≈ 47.4 µM) | 32 µg/mL (≈ 94.9 µM) | > 32 µg/mL | >32, >32 μg/mL | > 32 µg/mL | >32, >32 μg/mL | O=c1oc2ccccc2cc1-c1csc(-c2ccc(O)c(O)c2)n1 [Compound 17, 3-(2-(3,4-dihydroxyphenyl)thiazol-4-yl)-2H-chromen-2-one] | 
8 |  |  |  |  |  |  |  |  |  |  |  |  | > 32 µg/mL | >32, >32 μg/mL | > 32 µg/mL | >32, >32 μg/mL | > 32 µg/mL | >32, >32 μg/mL | Oc1ccc(-c2nc(-c3ccncc3)cs2)cc1O [Compound 11, 4-(4-(pyridin-4-yl)thiazol-2-yl)benzene-1,2-diol] | 
9 |  |  |  |  |  |  |  | 1 µg/mL (≈ 0.617 µM) |  |  |  |  |  |  |  |  |  |  | CCCCCCCCCC(=O)N[C@@H](Cc1c[nH]c2ccccc12)C(=O)N[C@H](CC(N)=O)C(=O)N[C@@H](CC(=O)O)C(=O)N[C@@H]1C(=O)NCC(=O)N[C@@H](CCCN)C(=O)N[C@@H](CC(=O)O)C(=O)N[C@H](C)C(=O)N[C@@H](CC(=O)O)C(=O)NCC(=O)N[C@H](CO)C(=O)N[C@@H]([C@H](C)CC(=O)O)C(=O)N[C@@H](CC(=O)c2ccccc2N)C(=O)O[C@@H]1C [Dapt., Daptomycin, reference compound] | MIC ([8]; ATCC700221, Table 1, HT series): 4 µg/mL (≈ 2.47 µM); MIC ([11]; Table 1, HT series): 1 µg/mL (≈ 0.617 µM); Minimum inhibitory concentration (MIC) Efs 99 ([11]; Table 2, HTM series): 1 µg/mL (≈ 0.617 µM)
